The test system of series [1] is RSV (RSV A2 ECACC, 0709161v). As to the kind of experiment: RSV plaque reduction assay. Type of series: cell-based, respiratory syncytial virus. Particulars: human respiratory syncytial virus, HepG2, read-out: RSV A2 Plaque EC50, RSV A2 in Hep-G2 cells; mean of at least two experiments unless noted (n = 1). A digest of the protocol:
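Eight-point compound dilutions were premixed with RSV A2 (100 PFU/well) and applied to confluent Hep-G2 cells for 2 h, followed by a 2-day incubation at 37° C. under compound-containing 0.8% CMC overlay. EC50 comes from immunostained plaque counts relative to untreated virus wells, averaged over ≥2 runs.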

The nature of the next series: cell toxicity CC50. Type of series: cell-based. Conditions: human; Hep-G2 cells; mean of at least two experiments; read-out: Cell Cytotoxicity CC50.

Some results are limits rather than exact numbers.

For the molecule `COCCn1cc(-c2nn3c(c2C(=O)N[C@H]2N=C(c4ccccc4)c4cccc(F)c4NC2=O)O[C@H](C)CC3)cn1` [Example 119, (5R)-N-[(3S)-9-fluoro-2-oxo-5-phenyl-1,3-dihydro-1,4-benzodiazepin-3-yl]-2-[1-(2-methoxyethyl)pyrazol-4-yl]-5-methyl-6,7-dihydro-5H-pyrazolo[5,1-b][1,3]oxazine-3-carboxamide], the EC50 in series [1] stood at 69 nM. In “cell toxicity CC50”, the cytotoxic concentration (CC50) was above 25000 nM.
For `Cc1c(-c2nn3c(c2C(=O)N[C@H]2N=C(c4ccccc4)c4cccc(F)c4NC2=O)O[C@H](C)CC3)cnn1C` [Example 121, (5R)-2-(1,5-Dimethylpyrazol-4-yl)-N-[(3S)-9-fluoro-2-oxo-5-phenyl-1,3-dihydro-1,4-benzodiazepin-3-yl]-5-methyl-6,7-dihydro-5H-pyrazolo[5,1-b][1,3]oxazine-3-carboxamide], in that order: 374 nM and above 25000 nM.
With `C[C@@H]1CCn2nc(-c3cnn(CC(C)(C)O)c3)c(C(=O)N[C@H]3N=C(c4ccccc4)c4cccc(F)c4NC3=O)c2O1` [Example 122, (5R)-N-[(3S)-9-fluoro-2-oxo-5-phenyl-1,3-dihydro-1,4-benzodiazepin-3-yl]-2-[1-(2-hydroxy-2-methylpropyl)pyrazol-4-yl]-5-methyl-6,7-dihydro-5H-pyrazolo[5,1-b][1,3]oxazine-3-carboxamide], in series [1], the 50% effective concentration (EC50) was found to be 166 nM. Further, in the series “cell toxicity CC50”, the CC50 is above 25000 nM.
In the same order, the values of `O=C(N[C@H]1N=C(c2ccccc2)c2cccc(F)c2NC1=O)c1c(-c2ccccc2F)nn2c1OCC(Cn1cccn1)C2` (stereo partly drawn) [Example 124, N-[(3S)-9-fluoro-2-oxo-5-phenyl-1,3-dihydro-1,4-benzodiazepin-3-yl]-2-(2-fluorophenyl)-6-(pyrazol-1-ylmethyl)-6,7-dihydro-5H-pyrazolo[5,1-b][1,3]oxazine-3-carboxamide] are 76 nM and above 25000 nM.
For `C[C@@H]1CCn2nc(-c3cnn(C4CC4)c3)c(C(=O)N[C@H]3N=C(c4ccccc4)c4ccccc4NC3=O)c2O1` [Example 125, (5R)-2-(1-Cyclopropylpyrazol-4-yl)-5-methyl-N-[(3S)-2-oxo-5-phenyl-1,3-dihydro-1,4-benzodiazepin-3-yl]-6,7-dihydro-5H-pyrazolo[5,1-b][1,3]oxazine-3-carboxamide], in that order: 70 nM and above 25000 nM.
As to `C[C@@H]1CCn2nc(-c3cnn(C4CC4)c3)c(C(=O)N[C@H]3N=C(c4ccccc4)c4cccc(F)c4NC3=O)c2O1` [Example 126, (5R)-2-(1-Cyclopropylpyrazol-4-yl)-N-[(3S)-9-fluoro-2-oxo-5-phenyl-1,3-dihydro-1,4-benzodiazepin-3-yl]-5-methyl-6,7-dihydro-5H-pyrazolo[5,1-b][1,3]oxazine-3-carboxamide], in series [1], the EC50 stood at 54 nM. Besides, the CC50 in the series “cell toxicity CC50” was above 25000 nM.
As to `CCc1ccc(-c2nn3c(c2C(=O)N[C@H]2N=C(c4ccccc4)c4cccc(F)c4NC2=O)O[C@@H](C)CC3)cn1` [Example 127, (5S)-2-(6-Ethylpyridin-3-yl)-N-[(3S)-9-fluoro-2-oxo-5-phenyl-1,3-dihydro-1,4-benzodiazepin-3-yl]-5-methyl-6,7-dihydro-5H-pyrazolo[5,1-b][1,3]oxazine-3-carboxamide], the concentration for a half-maximal effect (EC50) in series [1] was found to be 41 nM. Also, in the series “cell toxicity CC50”, the CC50 was above 25000 nM.
In the same order, the values of `O=C(N[C@H]1N=C(c2ccccc2)c2cccc(F)c2NC1=O)c1c(-c2ccc(F)cc2F)nn2c1OCC(CO)C2` (stereo partly drawn) [Example 128, 2-(2,4-Difluorophenyl)-N-[(3S)-9-fluoro-2-oxo-5-phenyl-1,3-dihydro-1,4-benzodiazepin-3-yl]-6-(hydroxymethyl)-6,7-dihydro-5H-pyrazolo[5,1-b][1,3]oxazine-3-carboxamide] are 41 nM and above 25000 nM.
For `CCn1cc(-c2nn3c(c2C(=O)N[C@H]2N=C(c4ccccc4)c4cccc(F)c4NC2=O)OCC(CO)C3)cn1` (stereo partly drawn) [Example 130, 2-(1-Ethylpyrazol-4-yl)-N-[(3S)-9-fluoro-2-oxo-5-phenyl-1,3-dihydro-1,4-benzodiazepin-3-yl]-6-(hydroxymethyl)-6,7-dihydro-5H-pyrazolo[5,1-b][1,3]oxazine-3-carboxamide], in that order: 350 nM and above 25000 nM.
As for `O=C(N[C@H]1N=C(c2ccccc2)c2ccccc2NC1=O)c1c(-c2ccc(F)cc2F)nn2c1OCC(CO)C2` (stereo partly drawn) [Example 131, 2-(2,4-Difluorophenyl)-6-(hydroxymethyl)-N-[(3S)-2-oxo-5-phenyl-1,3-dihydro-1,4-benzodiazepin-3-yl]-6,7-dihydro-5H-pyrazolo[5,1-b][1,3]oxazine-3-carboxamide], the 50% effective concentration (EC50) in series [1] was 93 nM. Further, the CC50 in “cell toxicity CC50” was above 25000 nM.
In the case of `CCc1ccc(-c2nn3c(c2C(=O)N[C@H]2N=C(c4ccccc4)c4ccccc4NC2=O)O[C@@H](C)CC3)cn1` [Example 132, (5S)-2-(6-Ethylpyridin-3-yl)-5-methyl-N-[(3S)-2-oxo-5-phenyl-1,3-dihydro-1,4-benzodiazepin-3-yl]-6,7-dihydro-5H-pyrazolo[5,1-b][1,3]oxazine-3-carboxamide], in series [1], the EC50 worked out at 72 nM. Also, the CC50 in “cell toxicity CC50” was above 25000 nM.
On to `CCc1ccc(-c2nn3c(c2C(=O)N[C@H]2N=C(c4ccccc4)c4cccc(F)c4NC2=O)OCC(CO)C3)cn1` (stereo partly drawn) [Example 133, 2-(6-Ethylpyridin-3-yl)-N-[(3S)-9-fluoro-2-oxo-5-phenyl-1,3-dihydro-1,4-benzodiazepin-3-yl]-6-(hydroxymethyl)-6,7-dihydro-5H-pyrazolo[5,1-b][1,3]oxazine-3-carboxamide], for which the EC50 in series [1] is 220 nM. Moreover, the CC50 in “cell toxicity CC50” is above 25000 nM.
As for `CS(=O)(=O)c1ccc(-c2nn3c(c2C(=O)N[C@H]2N=C(c4ccccc4)c4cccc(F)c4NC2=O)OCCC3)c(F)c1` [Example 135, 2-(2-Fluoro-4-methylsulfonylphenyl)-N-[(3S)-9-fluoro-2-oxo-5-phenyl-1,3-dihydro-1,4-benzodiazepin-3-yl]-6,7-dihydro-5H-pyrazolo[5,1-b][1,3]oxazine-3-carboxamide], in series [1], the half-maximal effective concentration (EC50) stood at 15 nM. Further, the CC50 in the series “cell toxicity CC50” was above 25000 nM.
In the same order, the values of `O=C(N[C@H]1N=C(c2ccccc2)c2ccccc2NC1=O)c1c(-c2cccnc2F)nn2c1OCCC2` [Example 136, 2-(2-Fluoropyridin-3-yl)-N-[(3S)-2-oxo-5-phenyl-1,3-dihydro-1,4-benzodiazepin-3-yl]-6,7-dihydro-5H-pyrazolo[5,1-b][1,3]oxazine-3-carboxamide] are 182 nM and above 25000 nM.
As for `C[C@@H]1CCn2nc(-c3ccc(S(C)(=O)=O)cc3F)c(C(=O)N[C@H]3N=C(c4ccccc4)c4cccc(F)c4NC3=O)c2O1` [Example 137, (5R)-2-(2-Fluoro-4-methylsulfonylphenyl)-N-[(3S)-9-fluoro-2-oxo-5-penyl-1,3-dihydro-1,4-benzodiazepin-3-yl]-5-methyl-6,7-dihydro-5H-pyrazolo[5,1-b][1,3]oxazine-3-carboxamide], in series [1], the EC50 was found to be 15 nM. In the series “cell toxicity CC50”, the cytotoxic concentration (CC50) is above 25000 nM.
For `N#Cc1ccc(-c2nn3c(c2C(=O)N[C@H]2N=C(c4ccccc4)c4cccc(F)c4NC2=O)OCCC3)c(F)c1` [Example 138, 2-(4-Cyano-2-fluorophenyl)-N-[(3S)-9-fluoro-2-oxo-5-phenyl-1,3-dihydro-1,4-benzodiazepin-3-yl]-6,7-dihydro-5H-pyrazolo[5,1-b][1,3]oxazine-3-carboxamide], in that order: 54 nM and above 25000 nM.

Values taken from patent US12678446B2 (PFIZER INC., priority 2020, dated 2026).
